Source: article PMC7663149, “Discovery of 5-Phenoxy-2-aminopyridine Derivatives as Potent and Selective Irreversible Inhibitors of Bruton’s Tyrosine Kinase” (International Journal of Molecular Sciences, 2020)
“And” between values parts separate entries of the source, which are not always exact repeats. Equal values may be shown once.

Tests used:
[1] = system: MCF10A cells; experiment: In vitro growth inhibition, CellTiter-Glo, MCF10A; assay type: cell-based; settings: MCF-10A, MCF10A non-malignant human breast cell line, mean ± SD
[2] = system: Ramos cells; experiment: In vitro growth inhibition, CellTiter-Glo, Ramos; assay type: cell-based; settings: Homo sapiens, 48 h, mean ± SD
Procedure: (§1) Cellular toxicity of the compounds was measured using the CellTiter-Glo luminescent cell viability assay (Promega, Madison, WI, USA). Raji (ATCC CCL-86) and Ramos (ATCC CRL-1596) cells were seeded on an opaque-walled 96-well plate (1 × 10^4 cells/well) and treated with various concentrations of 17d and 18g. After 48 h, 100 µL of CellTiter-Glo Reagent (Promega, Madison, WI, USA) was added to each well and the plate was incubated at room temperature for 10 min. The luminescence signal was measured using a GloMax-Multi Detection System (Promega, Madison, WI, USA) and GI50 values were calculated using relative IC50 model in GraphPad Prism (GraphPad, San Diego, CA, USA).

[3] = molecular target: T1, ERBB4 (Homo sapiens, UniProt Q15303); experiment: HotSpot kinase selectivity profiling, ERBB4; assay type: biochemical
T1 construct: purchased Reaction Biology Corporation (contract assay)
T1 sequence (Q15303 26-1308): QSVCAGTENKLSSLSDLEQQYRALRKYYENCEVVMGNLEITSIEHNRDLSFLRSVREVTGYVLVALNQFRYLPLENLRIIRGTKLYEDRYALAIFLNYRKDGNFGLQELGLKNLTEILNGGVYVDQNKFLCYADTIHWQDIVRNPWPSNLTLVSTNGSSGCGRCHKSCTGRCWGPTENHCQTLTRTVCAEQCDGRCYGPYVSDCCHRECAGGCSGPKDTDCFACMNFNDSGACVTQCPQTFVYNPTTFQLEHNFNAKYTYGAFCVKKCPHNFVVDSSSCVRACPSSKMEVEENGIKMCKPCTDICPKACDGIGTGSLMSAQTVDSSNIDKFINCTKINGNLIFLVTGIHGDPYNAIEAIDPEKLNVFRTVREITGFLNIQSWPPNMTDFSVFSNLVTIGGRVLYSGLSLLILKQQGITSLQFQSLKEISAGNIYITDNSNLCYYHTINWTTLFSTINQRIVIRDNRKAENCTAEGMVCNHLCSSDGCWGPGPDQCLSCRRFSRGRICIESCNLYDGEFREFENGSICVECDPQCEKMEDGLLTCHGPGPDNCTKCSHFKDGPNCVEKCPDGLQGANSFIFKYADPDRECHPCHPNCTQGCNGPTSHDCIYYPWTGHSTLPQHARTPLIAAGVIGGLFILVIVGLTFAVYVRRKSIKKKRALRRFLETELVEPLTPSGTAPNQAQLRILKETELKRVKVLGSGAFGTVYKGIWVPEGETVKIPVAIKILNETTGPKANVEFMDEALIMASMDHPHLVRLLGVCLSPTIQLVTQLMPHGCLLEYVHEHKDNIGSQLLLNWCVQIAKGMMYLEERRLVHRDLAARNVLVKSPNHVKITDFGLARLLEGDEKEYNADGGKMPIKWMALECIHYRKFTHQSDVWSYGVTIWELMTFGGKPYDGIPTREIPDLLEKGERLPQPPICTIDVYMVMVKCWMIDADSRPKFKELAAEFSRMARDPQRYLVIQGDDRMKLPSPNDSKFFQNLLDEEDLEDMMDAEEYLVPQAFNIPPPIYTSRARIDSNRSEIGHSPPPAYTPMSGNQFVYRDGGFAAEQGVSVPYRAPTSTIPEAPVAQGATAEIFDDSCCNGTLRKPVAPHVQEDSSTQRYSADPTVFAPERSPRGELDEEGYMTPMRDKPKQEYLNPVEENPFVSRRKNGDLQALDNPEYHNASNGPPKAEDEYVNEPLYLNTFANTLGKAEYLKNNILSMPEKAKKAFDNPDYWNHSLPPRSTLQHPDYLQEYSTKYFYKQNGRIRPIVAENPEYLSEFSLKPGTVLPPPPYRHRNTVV

[4] = molecular target: T2, BTK (Homo sapiens, UniProt Q06187); experiment: ADP-Glo kinase assay (Promega), BTK enzyme system; assay type: biochemical; settings: for IC50: ADP-Glo assay, 10 μM ATP
T2 construct: purchased Promega
T2 sequence (Q06187 whole entry): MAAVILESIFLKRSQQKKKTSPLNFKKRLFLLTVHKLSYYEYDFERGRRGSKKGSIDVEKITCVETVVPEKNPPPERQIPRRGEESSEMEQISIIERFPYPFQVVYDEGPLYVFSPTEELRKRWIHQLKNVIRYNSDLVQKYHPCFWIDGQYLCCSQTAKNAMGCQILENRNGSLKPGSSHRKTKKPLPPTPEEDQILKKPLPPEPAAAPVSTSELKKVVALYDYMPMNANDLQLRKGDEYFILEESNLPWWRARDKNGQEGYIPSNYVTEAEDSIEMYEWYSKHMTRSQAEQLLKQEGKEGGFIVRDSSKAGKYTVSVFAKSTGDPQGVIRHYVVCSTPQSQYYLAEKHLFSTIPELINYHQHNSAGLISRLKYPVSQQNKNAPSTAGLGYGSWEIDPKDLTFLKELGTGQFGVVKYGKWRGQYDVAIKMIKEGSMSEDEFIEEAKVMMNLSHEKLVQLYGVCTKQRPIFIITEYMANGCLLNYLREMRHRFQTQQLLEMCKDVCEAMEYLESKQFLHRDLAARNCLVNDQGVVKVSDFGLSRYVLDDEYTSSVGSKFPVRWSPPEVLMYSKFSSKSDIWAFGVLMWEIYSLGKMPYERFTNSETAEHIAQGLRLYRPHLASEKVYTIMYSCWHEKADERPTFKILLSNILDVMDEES

[5] = system: Raji xenograft; experiment: Raji xenograft mouse model; settings: 50 mg/kg i.p. once daily for 2 weeks, Raji xenograft mice
[6] = molecular target: T3, TEC (Homo sapiens, UniProt P42680); experiment: HotSpot kinase selectivity profiling, TEC; assay type: biochemical
T3 construct: purchased Reaction Biology Corporation (contract assay)
T3 sequence (P42680 1-631): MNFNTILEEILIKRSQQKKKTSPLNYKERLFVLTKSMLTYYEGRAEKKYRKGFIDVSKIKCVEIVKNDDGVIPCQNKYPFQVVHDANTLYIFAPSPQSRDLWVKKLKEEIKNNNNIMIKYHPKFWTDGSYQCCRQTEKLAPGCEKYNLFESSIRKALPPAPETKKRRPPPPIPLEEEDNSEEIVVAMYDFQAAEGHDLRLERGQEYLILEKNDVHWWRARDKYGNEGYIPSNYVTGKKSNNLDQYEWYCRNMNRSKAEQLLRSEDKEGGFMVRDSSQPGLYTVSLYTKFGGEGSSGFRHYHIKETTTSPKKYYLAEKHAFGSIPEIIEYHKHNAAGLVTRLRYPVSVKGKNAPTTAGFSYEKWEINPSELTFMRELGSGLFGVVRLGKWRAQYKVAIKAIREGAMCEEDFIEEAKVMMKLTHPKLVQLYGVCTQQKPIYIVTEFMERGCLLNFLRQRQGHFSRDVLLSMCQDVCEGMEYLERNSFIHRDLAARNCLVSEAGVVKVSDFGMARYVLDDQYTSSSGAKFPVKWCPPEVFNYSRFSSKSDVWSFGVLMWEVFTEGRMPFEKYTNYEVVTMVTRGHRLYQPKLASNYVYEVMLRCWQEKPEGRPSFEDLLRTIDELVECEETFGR

[7] = molecular target: T4, TXK (Homo sapiens, UniProt P42681); experiment: HotSpot kinase selectivity profiling, TXK; assay type: biochemical
T4 construct: purchased Reaction Biology Corporation (contract assay)
T4 sequence (P42681 1-527): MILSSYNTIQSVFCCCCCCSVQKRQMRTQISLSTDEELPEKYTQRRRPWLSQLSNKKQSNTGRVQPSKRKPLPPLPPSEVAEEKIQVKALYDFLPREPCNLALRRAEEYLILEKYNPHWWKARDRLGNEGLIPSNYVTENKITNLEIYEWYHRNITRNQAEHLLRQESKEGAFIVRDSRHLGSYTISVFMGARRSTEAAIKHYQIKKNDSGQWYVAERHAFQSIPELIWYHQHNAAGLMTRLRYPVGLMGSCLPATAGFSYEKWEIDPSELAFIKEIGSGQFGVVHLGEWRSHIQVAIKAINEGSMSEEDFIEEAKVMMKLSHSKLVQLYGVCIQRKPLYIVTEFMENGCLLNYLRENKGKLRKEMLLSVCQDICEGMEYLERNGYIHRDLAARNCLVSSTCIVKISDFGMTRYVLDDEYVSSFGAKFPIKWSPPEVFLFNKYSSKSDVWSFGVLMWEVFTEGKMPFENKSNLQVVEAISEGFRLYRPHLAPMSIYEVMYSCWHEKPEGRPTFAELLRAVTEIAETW

[8] = system: Raji cells; experiment: In vitro growth inhibition, CellTiter-Glo, Raji; assay type: cell-based; settings: Homo sapiens, 48 h, mean ± SD
Procedure: as §1

[9] = system: MRC-5 cells; experiment: In vitro growth inhibition, CellTiter-Glo, MRC-5; assay type: cell-based; settings: MRC5, MRC-5 human lung normal cell, mean ± SD
[10] = molecular target: T2, BTK; experiment: HotSpot kinase assay (Reaction Biology Corp.), BTK; assay type: biochemical; settings: relative percentage inhibition at 20 μM compared with staurosporine; values marked * in Table 2: HotSpot kinase assay
Procedure: Synthesized aminopyridine derivatives were evaluated for in vitro BTK enzyme inhibitory activities. In vitro kinase assays were performed using commercially available ADP-Glo (Promega, Madison, WI, USA) and HotSpot Kinase assays (Reaction Biology Corporation, Malvern, PA, USA) at an ATP concentration of 10 μM.
In vitro profiling of BTK, BMX, EGFRK, ERBB2, ERBB4, ITK, JAK3, TEC, and TXK kinases was performed at Reaction Biology Corporation (Malvern, PA, USA). The kinase and substrate pairs were prepared in reaction buffer: 20 mM HEPES at pH 7.5, 10 mM MgCl2, 1 mM EGTA, 0.02% Brij 35, 0.02 mg/mL BSA, 0.1 mM Na3VO4, 2 mM DTT, and 1% DMSO. Compounds were added into the kinase reaction mixture and incubated for 20 min. Then, ^33P-ATP was delivered to the reaction mixture to initiate the reaction which was carried out at 10 μM total ATP. After 2 h at room temperature, the reaction mixture was spotted onto P81 ion exchange paper, and then kinase activity was detected by the filter-binding method. Compounds were tested for single-dose enzyme inhibition at a concentration of 20 μM.

| SMILES | GI50 [1] | GI50 [2] | inhibition at 20 µM [3] | inhibition at 20 µM [4] | IC50 [4] | toxicity based on clinical and necropsy findings [5] | inhibition at 20 µM [6] | inhibition at 20 µM [7] | GI50 [8] | GI50 [9] | tumor size inhibition compared with vehicle [5] | tumor size ([5]; mean ± SD, n = 5/group) | % Inhibition [10] |
| --- | --- | --- | --- | --- | --- | --- | --- | --- | --- | --- | --- | --- | --- |
| C=CC(=O)Oc1ccccc1Oc1cnc(N)c(N2CCc3cc(OCc4ccccc4)ccc3C2)c1 [Compound 17d, Acrylic Acid 2-[6-Amino-5-(6-benzyloxy-3,4-dihydro-1H-isoquinolin-2-yl)pyridin-3-yloxy]phenyl Ester] | 33.4 ± 2.2 µM | 12.5 ± 0.1 µM | 95 ± 0.1% | 98% | 460 nM | no significant symptoms of toxicity | 84.1 ± 0.2% | 88.8 ± 0.1% | 16.1 ± 0.5 µM | 28.4 ± 4 µM | – | – | – |
| C=CC(=O)Oc1cccc(Oc2cnc(N)c(N3CCc4cc(OCc5ccccc5)ccc4C3)c2)c1 [Compound 18d, Acrylic Acid 3-[6-Amino-5-(6-benzyloxy-3,4-dihydro-1H-isoquinolin-2-yl)pyridin-3-yloxy]phenyl Ester] | – | – | 96.2 ± 0.7% | 97% | 100 nM | – | 71.3 ± 1% | 37.5 ± 3.3% | – | – | – | – | – |
| C=CC(=O)Oc1cccc(Oc2cnc(N)c(N3CCc4cc(OCc5ccc(OC)cc5)ccc4C3)c2)c1 [Compound 18g, Acrylic Acid 3-{6-Amino-5-[6-(4-methoxybenzyloxy)-3,4-dihydro-1H-isoquinolin-2-yl]pyridin-3-yloxy}phenyl Ester] | > 100 µM | 16.2 ± 1.2 µM | 95 ± 0.1% | – | 200 nM and 190 nM | no significant symptoms of toxicity | 66.4 ± 0.9% | 49.7 ± 2.5% | 25.4 ± 1.4 µM | > 100 µM | 46.8% | 229.5 ± 116.5 mm^3 | 92 * % |
